Assay results from patent US9469615B2, “Quinoxalines and AZA-quinoxalines as CRTH2 receptor modulators” (Merck Sharp & Dohme Corp., priority 2010, dated 2016).

target: T1, hCRTH2 (Homo sapiens, UniProt Q9Y5Y4); assay: Radioligand binding assay ([3H]PGD2 competition, HEK-hCRTH2 membranes); settings: [3H]PGD2 binding, rated A-E (Table A)
T1 construct: expressed in transfected cells; host or cells: HEK (human embryonic kidney) cells expressing hCRTH2; membrane preparation
T1 sequence (Q9Y5Y4 1-395): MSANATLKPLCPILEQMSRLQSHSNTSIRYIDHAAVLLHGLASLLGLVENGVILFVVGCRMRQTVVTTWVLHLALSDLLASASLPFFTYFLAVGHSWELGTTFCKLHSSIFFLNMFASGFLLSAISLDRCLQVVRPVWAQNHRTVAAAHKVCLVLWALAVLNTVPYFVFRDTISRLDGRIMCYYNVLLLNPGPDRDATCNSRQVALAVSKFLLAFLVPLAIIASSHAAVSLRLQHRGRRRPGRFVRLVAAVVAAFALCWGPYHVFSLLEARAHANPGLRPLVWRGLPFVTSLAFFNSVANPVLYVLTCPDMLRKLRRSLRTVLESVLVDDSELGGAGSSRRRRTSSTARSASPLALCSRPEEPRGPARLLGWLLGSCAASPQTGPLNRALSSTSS
Summary of the method: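 Displacement of 3.0 nM [3H]PGD2 from human CRTH2 expressed in HEK membranes was measured at room temperature over 60 min. Unlabelled PGD2 at 10 μM gave non-specific binding.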

Row | Structure (SMILES) | Ki
1 | O=C(O)CCCCc1nc2cc(C(=O)N3CCC(c4ccccc4)CC3)ccc2nc1-c1cncnc1 [26Q, 7-[(4-phenyl-1-piperidinyl)carbonyl]-3-(5-pyrimidinyl)-2-quinoxalinepentanoic acid] | 20.1 to 200 nM
2 | O=C(O)CCCCc1nc2cc(C(=O)N3CCC(c4ccccc4)CC3)ccc2nc1-c1cncc(Cl)c1 [26R, 3-(5-chloro-3-pyridinyl)-7-[(4-phenyl-1-piperidinyl)carbonyl]-2-quinoxalinepentanoic acid] | 20.1 to 200 nM
3 | CS(=O)(=O)c1ccc(-c2nc3ccc(C(=O)N4CCC(c5ccccc5)CC4)cc3nc2CCCCC(=O)O)cc1 [26X] | 20.1 to 200 nM
4 | C[C@@H](NC(=O)c1ccc2nc(-c3ccccc3)c(NCCCC(=O)O)nc2c1)c1ccc(C#N)cc1 [44G] | 20.1 to 200 nM
5 | O=C(O)CCCNc1nc2cc(C(=O)N3CCN(c4ccc(F)cc4)CC3)ccc2nc1-c1ccccc1 [44H, 4-((7-(4-(4-fluorophenyl)piperazine-1-carbonyl)-3-phenylquinoxalin-2-yl)amino)butanoic acid] | 2.1 to 20 nM
6 | O=C(O)CCCNc1nc2cc(C(=O)N3CCC(c4ccc(F)cc4)CC3)ccc2nc1-c1ccccc1 [44J, 4-((7-(4-(4-fluorophenyl)piperidine-1-carbonyl)-3-phenylquinoxalin-2-yl)amino)butanoic acid] | 2.1 to 20 nM
7 | O=C(O)CCCNc1nc2cc(C(=O)N3CCN(c4ccc(Cl)cc4)CC3)ccc2nc1-c1ccccc1 [44L, 4-((7-(4-(4-chlorophenyl)piperazine-1-carbonyl)-3-phenylquinoxalin-2-yl)amino)butanoic acid] | 2.1 to 20 nM
8 | O=C(O)CCCNc1nc2cc(C(=O)N3CC[C@H](c4ccccc4)C3)ccc2nc1-c1ccccc1 [44M, (R)-4-((3-phenyl-7-(3-phenylpyrrolidine-1-carbonyl)quinoxalin-2-yl)amino)butanoic acid] | 2.1 to 20 nM
9 | C[C@@H]1CN(c2ccccc2)CCN1C(=O)c1ccc2nc(-c3ccccc3)c(NCCCC(=O)O)nc2c1 [44N, (R)-4-((7-(2-methyl-4-phenylpiperazine-1-carbonyl)-3-phenylquinoxalin-2-yl)amino)butanoic acid] | 2.1 to 20 nM
10 | O=C(O)CCCCc1nc2cc(C(=O)C3CC3)ccc2nc1-c1cccc(F)c1 [compound 3, 5-[7-(Cyclopropanecarbonyl)-3-(3-fluorophenyl)quinoxalin-2-yl]pentanoic Acid] | 2.1 to 20 nM
11 | C[C@H](NC(=O)c1ccc2nc(-c3ccc(C(F)(F)F)cc3)c(CCCCC(=O)O)nc2c1)c1cccc(-c2ccccc2)c1 [compound 4, (S)-5-{7-[1-(biphenyl-3-yl)ethylcarbamoyl]-3-[4-(trifluoromethyl)phenyl]quinoxalin-2-yl}pentanoic Acid] | 2.1 to 20 nM
12 | CNC(=O)c1ccc2nc(-c3ccc(F)cc3)c(CCCCC(=O)O)nc2c1 [compound 7, 3-(4-fluorophenyl)-7-[(methylamino)carbonyl]-2-quinoxalinepentanoic acid] | 2.1 to 20 nM
13 | O=C(O)CCCCc1nc2ccc(C(=O)NCc3cccc(Cl)c3)cc2nc1-c1ccccc1 [compound 8] | 20.1 to 200 nM
14 | COC(=O)c1ccc2nc(-c3ccccc3)c(OCCCC(=O)O)nc2c1 [compound 9, 4-{[7-(Methoxycarbonyl)-3-phenylquinoxalin-2-yl]oxy}butanoic Acid] | 2.1 to 20 nM
15 | O=C(O)CCCOc1nc2cc(C(=O)NCc3cccnc3)ccc2nc1-c1ccccc1 [compound 10, 4-({3-Phenyl-7-[(pyridin-3-ylmethyl)carbamoyl]quinoxalin-2-yl}oxy)butanoic Acid] | 2.1 to 20 nM
16 | O=C(O)CCCCc1nc2cc(NC(=O)Cc3ccc(Cl)c(Cl)c3)ccc2nc1-c1ccccc1 [compound 11] | 20.1 to 200 nM
17 | O=C(O)CCCCc1nc2cc(NS(=O)(=O)Cc3ccccc3)ccc2nc1-c1ccccc1 [compound 12, 5-{7-[(benzylsulfonyl)amino]-3-phenylquinoxalin-2-yl}pentanoic Acid] | 201 to 700 nM
18 | COC(=O)c1cnc2nc(-c3ccccc3)c(CCCCC(=O)O)nc2c1 [compound 13, 5-[7-(Methoxycarbonyl)-3-phenylpyrido[2,3-b]pyrazin-2-yl]pentanoic Acid] | 20.1 to 200 nM
19 | O=C(O)CCCCc1nc2cc(C(=O)NCc3ccc(C(F)(F)F)cc3)cnc2nc1-c1ccccc1 [compound 14] | 2.1 to 20 nM

More lines, now with the values ahead:

Row | Ki | Structure (SMILES)
20 | 0.1 to 2 nM | O=C(O)CCCCc1nc2cc(C(=O)N3CCC(c4ccccc4)CC3)ccc2nc1-c1ccc(OC(F)(F)F)cc1 [26N, 7-[(4-phenyl-1-piperidinyl)carbonyl]-3-[4-(trifluoromethoxy)phenyl]-2-quinoxalinepentanoic acid]
21 | 2.1 to 20 nM | N#Cc1ccc(-c2nc3ccc(C(=O)N4CCC(c5ccccc5)CC4)cc3nc2CCCCC(=O)O)cc1 [26P, 3-(4-cyanophenyl)-7-[(4-phenyl-1-piperidinyl)carbonyl]-2-quinoxalinepentanoic acid]
22 | 0.1 to 2 nM | O=C(O)CCCCc1nc2cc(C(=O)N3CCC(c4ccccc4)CC3)ccc2nc1-c1ccsc1 [26S, 7-[(4-phenyl-1-piperidinyl)carbonyl]-3-(3-thienyl)-2-quinoxalinepentanoic acid]
23 | 2.1 to 20 nM | Cn1cc(-c2nc3ccc(C(=O)N4CCC(c5ccccc5)CC4)cc3nc2CCCCC(=O)O)cn1 [26T, 3-(1-methyl-1H-pyrazol-4-yl)-7-[(4-phenyl-1-piperidinyl)carbonyl]-2-quinoxalinepentanoic acid]
24 | 2.1 to 20 nM | CC(=O)c1ccccc1-c1nc2ccc(C(=O)N3CCC(c4ccccc4)CC3)cc2nc1CCCCC(=O)O [26U, 3-(2-acetylphenyl)-7-[(4-phenyl-1-piperidinyl)carbonyl]-2-quinoxalinepentanoic acid]
25 | 0.1 to 2 nM | COc1cc(C(F)(F)F)ccc1-c1nc2ccc(C(=O)N3CCC(c4ccccc4)CC3)cc2nc1CCCCC(=O)O [26V, 3-[2-methoxy-4-(trifluoromethyl)phenyl]-7-[(4-phenyl-1-piperidinyl)carbonyl]-2-quinoxalinepentanoic acid]
26 | 0.1 to 2 nM | COc1ccc(-c2nc3ccc(C(=O)N4CCC(c5ccccc5)CC4)cc3nc2CCCCC(=O)O)c(Cl)c1 [26W, 3-(2-chloro-4-methoxyphenyl)-7-[(4-phenyl-1-piperidinyl)carbonyl]-2-quinoxalinepentanoic acid]
27 | 0.1 to 2 nM | O=C(O)CCCCc1nc2cc(C(=O)N3CCC(c4ccccc4)CC3)ccc2nc1-c1ccc(Cl)cc1Cl [26Y, 3-(2,4-dichlorophenyl)-7-[(4-phenyl-1-piperidinyl)carbonyl]-2-quinoxalinepentanoic acid]
28 | 0.1 to 2 nM | COc1ccc(-c2nc3ccc(C(=O)N4CCC(c5ccccc5)CC4)cc3nc2CCCCC(=O)O)c(OC)c1 [26Z, 3-(2,4-dimethoxyphenyl)-7-[(4-phenyl-1-piperidinyl)carbonyl]-2-quinoxalinepentanoic acid]
29 | 2.1 to 20 nM | O=C(O)CCCCc1nc2cc(C(=O)N3CCC(c4ccccc4)C3)ccc2nc1-c1cc(F)cc(F)c1 (centres unmarked) [26i, 3-(3,5-difluorophenyl)-7-[(3-phenyl-1-pyrrolidinyl)carbonyl]-2-quinoxalinepentanoic acid]
30 | 0.1 to 2 nM | COc1ccc(-c2nc3ccc(C(=O)N4CCC(c5ccccc5)CC4)cc3nc2CCCCC(=O)O)cc1 [26o, 3-(4-methoxyphenyl)-7-[(4-phenyl-1-piperidinyl)carbonyl]-2-quinoxalinepentanoic acid]
31 | 2.1 to 20 nM | C[C@@H](NC(=O)c1ccc2nc(-c3ccc(Cl)cc3)c(CC3CC(C(=O)O)C3)nc2c1)c1ccc(F)cc1 (some centres unmarked) [30E]
32 | 2.1 to 20 nM | O=C(O)CCCCc1nc2cc(C(=O)N3CC(c4nc5ccccc5o4)C3)ccc2nc1-c1ccccc1 [31C]
33 | 2.1 to 20 nM | C[C@@H](NC(=O)c1ccc2nc(-c3ccccc3)c(NCCCC(=O)O)nc2c1)c1ccc(F)cc1 [44D, (R)-4-((7-((1-(4-fluorophenyl)ethyl)carbamoyl)-3-phenylquinoxalin-2-yl)amino)butanoic acid]
34 | 2.1 to 20 nM | O=C(O)CCCNc1nc2cc(C(=O)N[C@@H]3CCCc4cc(F)ccc43)ccc2nc1-c1ccccc1 [44E, (R)-4-((7-((6-fluoro-1,2,3,4-tetrahydronaphthalen-1-yl)carbamoyl)-3-phenylquinoxalin-2-yl)amino)butanoic acid]
35 | 2.1 to 20 nM | O=C(O)CCCNc1nc2cc(C(=O)N3CCN(c4ccccc4)CC3)ccc2nc1-c1ccccc1 [44F, 4-((3-phenyl-7-(4-phenylpiperazine-1-carbonyl)quinoxalin-2-yl)amino)butanoic acid]
36 | 0.1 to 2 nM | O=C(O)CCCNc1nc2cc(C(=O)N3CCC(c4ccc(Cl)cc4)CC3)ccc2nc1-c1ccccc1 [44K, 4-((7-(4-(4-chlorophenyl)piperidine-1-carbonyl)-3-phenylquinoxalin-2-yl)amino)butanoic acid]
37 | 0.1 to 2 nM | O=C(O)CCCNc1nc2cc(C(=O)N[C@@H]3CCCc4ccccc43)ccc2nc1-c1ccccc1 [44i, (R)-4-((3-phenyl-7-((1,2,3,4-tetrahydronaphthalen-1-yl)carbamoyl)quinoxalin-2-yl)amino)butanoic acid]
38 | 0.1 to 2 nM | O=C(O)CCCCc1nc2cc(C(=O)C3CC3)ccc2nc1-c1ccc(F)cc1 [compound 5, 5-(7-(cyclopropanecarbonyl)-3-(4-fluorophenyl)quinoxalin-2-yl)pentanoic acid]
39 | 0.1 to 2 nM | CCC(=O)c1ccc2nc(-c3ccccc3)c(CCCCC(=O)O)nc2c1 [compound 6, 7-(1-oxopropyl)-3-phenyl-2-quinoxalinepentanoic acid]
40 | 0.1 to 2 nM | O=C(O)CCCCc1nc2cc(C(=O)NCc3ccc(Cl)cc3)ccc2nc1-c1ccc(Cl)cc1 [compound 16]

same assay, conditions: [3H]PGD2 binding, values in text

Row | Ki | Structure (SMILES)
41 | 96.7 nM | O=C(O)CCCCc1nc2cc(C(=O)N3CCC(c4ccccc4)CC3)ccc2nc1-c1cncnc1 [26Q, 7-[(4-phenyl-1-piperidinyl)carbonyl]-3-(5-pyrimidinyl)-2-quinoxalinepentanoic acid]
42 | 1.4 nM | COc1ccc(-c2nc3ccc(C(=O)N4CCC(c5ccccc5)CC4)cc3nc2CCCCC(=O)O)cc1 [26o, 3-(4-methoxyphenyl)-7-[(4-phenyl-1-piperidinyl)carbonyl]-2-quinoxalinepentanoic acid]
43 | 3.1 nM | O=C(O)CCCNc1nc2cc(C(=O)N3CCN(c4ccc(F)cc4)CC3)ccc2nc1-c1ccccc1 [44H, 4-((7-(4-(4-fluorophenyl)piperazine-1-carbonyl)-3-phenylquinoxalin-2-yl)amino)butanoic acid]
44 | 3.2 nM | O=C(O)CCCCc1nc2cc(C(=O)C3CC3)ccc2nc1-c1cccc(F)c1 [compound 3, 5-[7-(Cyclopropanecarbonyl)-3-(3-fluorophenyl)quinoxalin-2-yl]pentanoic Acid]
